Test results reported in BindingDB's records for patent US20240254093 (Heptares Therapeutics Limited, 2024).

Target: G-protein coupled receptor 35 (Homo sapiens, UniProt Q9HC97)
Assay: Human GPR35a Isoform Binding Assay
Method: Overexpression of Human GPR35a Baculovirus in HEK293f cells at a cell density of 2.5 106 cells/mL and a multiplicity of infection of 2.5 over 24 h in Pro293 (Lonza)+5% FBS, 1% Glutamax and 0.4% Pen/Strep. Cells harvested and centrifuged at 2500 RPM for 10 mins at 4 C. The supernatant was then poured off and the pellet stored at +-80 C. The pellet was defrosted and re-suspended in 15 mL of homogenising buffer (20 mM HEPES, 10 mM EDTA, pH 7.4). Then homogenised in mechanical homogeniser (VMR) for 10 seconds. The membrane was centrifuged in centrifuge tubes at 40,000 g for 15 mins at 4 C. The supernatant was poured away and re-suspended in 15 mL of homogenising buffer. Homogenised for 20 seconds. The membrane was centrifuged at 40,000 g for 45 mins at 4 C. The membrane was re-suspended in 3 mL of storage buffer (20 mM HEPES, 0.1 mM EDTA, pH 7.4) mixing well. The resulting membranes were then stored at +-80 . […] 0.1 uM FAC Lodoxamide was added in order to allow non-specific binding to be calculated. […] Plates were dried prior to 50 ul/well scintillant added, sealed and radioactivity measured using a MicroBeta analyser. IC50 values were derived from the inhibition curve and affinity constant (Ki) values were calculated using the Cheng-Prussoff equation, where; pKi=+-log 10 Ki.

G-protein coupled receptor 35, sequence (Q9HC97 whole entry, canonical isoform): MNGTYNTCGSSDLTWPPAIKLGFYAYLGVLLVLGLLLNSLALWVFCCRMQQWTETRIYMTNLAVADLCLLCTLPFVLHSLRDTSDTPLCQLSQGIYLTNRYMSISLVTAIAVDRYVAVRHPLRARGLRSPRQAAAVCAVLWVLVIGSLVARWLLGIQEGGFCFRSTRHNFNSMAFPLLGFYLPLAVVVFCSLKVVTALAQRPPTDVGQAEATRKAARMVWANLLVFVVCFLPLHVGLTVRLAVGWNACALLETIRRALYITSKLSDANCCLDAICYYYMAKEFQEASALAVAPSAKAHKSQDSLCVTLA

Row | Structure (SMILES) | Ki [nM]
1 | O=c1c(O)c(Nc2cc(-c3ccccc3)cc(-c3nn[nH]n3)c2)c1=O [US20240254093, Example 3] | 0.35
2 | O=c1c(O)c(Nc2cccc(-c3nn[nH]n3)c2)c1=O [US20240254093, Example 1] | 9.81
